Laboratory results from ChEMBL document CHEMBL1201862, “PubChem BioAssay data set” (2004).
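Cultured in 96-well plates, cells were exposed to test compound for 48 hours across five concentrations. GI50 marks 50% less growth.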 The source made the active and inactive calls. Cut-off read from the data, not from the text of the source: active = GI50 up to about 1.1 µM and inactive = higher.

Columns and labels:
Assay in all cases: NCI anticancer screen, dose series, 48 h
SF-268 = tested on: SF-268
SW-620 = tested on: SW-620
UO-31 = tested on: UO-31
IGROV-1 = tested on: IGROV-1
UACC-62 = tested on: UACC-62
U-251 = tested on: U-251
K562 = tested on: K562
SK-MEL-2 = tested on: SK-MEL-2
SNB-19 = tested on: SNB-19
OVCAR-5 = tested on: OVCAR-5
SK-MEL-5 = tested on: SK-MEL-5
MOLT-4 = tested on: MOLT-4
A498 = tested on: A498
NCI-H226 = tested on: NCI-H226
ACHN = tested on: ACHN
DU-145 = tested on: DU-145
SNB-75 = tested on: SNB-75
HCT-15 = tested on: HCT-15
KM12 = tested on: KM12
HT-29 = tested on: HT-29
CAKI-1 = tested on: CAKI-1
SR = tested on: SR
NCI/ADR-RES = tested on: NCI/ADR-RES
COLO 205 = tested on: COLO 205
HCT-116 = tested on: HCT-116
Malme-3M = tested on: Malme-3M
OVCAR-4 = tested on: OVCAR-4
NCI-H460 = tested on: NCI-H460
MCF7 = tested on: MCF7
MDA-MB-435 = tested on: MDA-MB-435
SK-OV-3 = tested on: SK-OV-3
Hs-578T = tested on: Hs-578T
OVCAR-8 = tested on: OVCAR-8
BT-549 = tested on: BT-549
MDA-MB-231 = tested on: MDA-MB-231
NCI-H522 = tested on: NCI-H522
SN12C = tested on: SN12C
NCI-H23 = tested on: NCI-H23
M14 = tested on: M14
786-0 = tested on: 786-0
A549 = tested on: A549
TK-10 = tested on: TK-10
HOP-62 = tested on: HOP-62
T47D = tested on: T47D
SF-295 = tested on: SF-295
CCRF-CEM = tested on: CCRF-CEM
SF-539 = tested on: SF-539
LOX IMVI = tested on: LOX IMVI
EKVX = tested on: EKVX
HL-60 = tested on: HL-60
SK-MEL-28 = tested on: SK-MEL-28
UACC-257 = tested on: UACC-257
HCC 2998 = tested on: HCC 2998

Measured: GI50

CC(=O)Nc1ccc2c(c1)[nH]c(=O)c1cc(Cl)ccc12
active: CAKI-1 0.51 µM | CCRF-CEM 0.341 µM
inactive: SF-268 26.9 µM | SW-620 27.7 µM | UO-31 18.2 µM | IGROV-1 6.75 µM | UACC-62 12.3 µM | U-251 34.3 µM | K562 34.1 µM | SK-MEL-2 46.6 µM | SNB-19 65.9 µM | OVCAR-5 27 µM | SK-MEL-5 15.9 µM | MOLT-4 2.23 µM | A498 29.3 µM | NCI-H226 10.2 µM | ACHN 23.9 µM | DU-145 19.9 µM | SNB-75 52.4 µM | KM12 26.5 µM | HT-29 15.4 µM | SR 3.2 µM | NCI/ADR-RES 48.8 µM | COLO 205 47.2 µM | HCT-116 17.4 µM | Malme-3M 17.1 µM | OVCAR-4 34.1 µM | NCI-H460 10.4 µM | MCF7 4.48 µM | MDA-MB-435 23.4 µM | SK-OV-3 34.8 µM | Hs-578T 94 µM | OVCAR-8 10 µM | BT-549 25.8 µM | MDA-MB-231 44.8 µM | NCI-H522 27.1 µM | SN12C 43.5 µM | NCI-H23 17.1 µM | M14 36.5 µM | 786-0 65.6 µM | A549 5.61 µM | TK-10 15.2 µM | HOP-62 33 µM | T47D 57.9 µM | SF-295 35.1 µM | SF-539 40.1 µM | LOX IMVI 19.5 µM | EKVX 26.2 µM | HL-60 21.1 µM | SK-MEL-28 38.8 µM | UACC-257 20.3 µM | HCC 2998 38.5 µM
33.1 µM: HCT-15
